The results in this text go back to patent US12692268B2 (priority 2020, dated 2026).

Read-outs that look alike come from different tables or passages of the source.

For test [1], the target named is T1, JNK3 (Homo sapiens, UniProt P53779). Nature of the test: biochemical.
The target of a further test is JNK2 (Homo sapiens, UniProt P45984). Kind of test: Kinase panel screening, single dose 10 μM. The class given is biochemical. The settings on record: single dose concentration of 10 μM; read-out: inhibitory activity for JNK2.
A further test concerns the target RIPK3 (Homo sapiens, UniProt Q9Y572). Nature of the test: Kinase panel screening, single dose 10 μM. The class given is biochemical. The settings on record: single dose concentration of 10 μM; read-out: inhibitory activity for RIPK3.
The target in test [2] is T1, JNK3. Nature of the test: Kinase panel screening, single dose 10 μM. The class given is biochemical. The settings on record: single dose concentration of 10 μM; read-out: inhibitory activity for JNK3.
The next test concerns the target GSK-β (Homo sapiens, UniProt P49841). Nature of the test: Kinase panel screening, single dose 10 μM. The format is biochemical. The settings on record: single dose concentration of 10 μM; read-out: inhibitory activity for GSK-β.

T1 sequence (P53779 whole entry): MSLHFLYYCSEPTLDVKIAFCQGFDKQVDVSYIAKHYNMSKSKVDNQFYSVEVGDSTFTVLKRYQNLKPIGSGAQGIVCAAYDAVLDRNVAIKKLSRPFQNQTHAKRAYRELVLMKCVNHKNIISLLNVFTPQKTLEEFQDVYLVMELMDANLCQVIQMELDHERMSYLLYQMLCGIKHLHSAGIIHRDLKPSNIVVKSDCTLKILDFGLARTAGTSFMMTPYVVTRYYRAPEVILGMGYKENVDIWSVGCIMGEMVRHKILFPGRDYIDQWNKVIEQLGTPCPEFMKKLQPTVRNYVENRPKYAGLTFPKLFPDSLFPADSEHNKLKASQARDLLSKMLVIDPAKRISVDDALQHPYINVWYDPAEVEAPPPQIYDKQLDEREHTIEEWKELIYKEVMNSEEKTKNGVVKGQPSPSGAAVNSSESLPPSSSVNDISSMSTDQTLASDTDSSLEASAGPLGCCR
GSK-β, sequence (P49841 whole entry): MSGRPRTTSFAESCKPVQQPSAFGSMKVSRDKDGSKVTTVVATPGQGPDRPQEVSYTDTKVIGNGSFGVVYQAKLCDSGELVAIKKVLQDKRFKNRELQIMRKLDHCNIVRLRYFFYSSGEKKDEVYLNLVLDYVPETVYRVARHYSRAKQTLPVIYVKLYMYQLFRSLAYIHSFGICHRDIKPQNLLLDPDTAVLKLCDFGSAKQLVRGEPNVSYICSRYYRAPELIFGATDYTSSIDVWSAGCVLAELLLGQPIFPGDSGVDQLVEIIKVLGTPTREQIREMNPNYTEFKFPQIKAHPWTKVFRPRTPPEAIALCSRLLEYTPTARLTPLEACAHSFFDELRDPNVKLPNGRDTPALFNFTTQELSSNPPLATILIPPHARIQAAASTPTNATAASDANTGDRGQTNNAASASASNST
JNK2, sequence (P45984 whole entry, species assumed): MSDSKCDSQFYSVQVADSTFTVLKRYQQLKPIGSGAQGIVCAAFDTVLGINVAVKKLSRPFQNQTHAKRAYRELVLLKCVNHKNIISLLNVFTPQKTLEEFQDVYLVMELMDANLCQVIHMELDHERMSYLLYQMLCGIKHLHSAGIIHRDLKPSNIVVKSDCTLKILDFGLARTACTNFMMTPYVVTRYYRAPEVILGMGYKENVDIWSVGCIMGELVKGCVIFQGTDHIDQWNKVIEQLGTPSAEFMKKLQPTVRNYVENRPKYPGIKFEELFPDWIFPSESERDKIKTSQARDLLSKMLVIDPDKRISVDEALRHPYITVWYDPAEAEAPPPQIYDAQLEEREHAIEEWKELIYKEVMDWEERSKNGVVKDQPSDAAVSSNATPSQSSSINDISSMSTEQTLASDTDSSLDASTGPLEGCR
RIPK3, sequence (Q9Y572 whole entry, species assumed): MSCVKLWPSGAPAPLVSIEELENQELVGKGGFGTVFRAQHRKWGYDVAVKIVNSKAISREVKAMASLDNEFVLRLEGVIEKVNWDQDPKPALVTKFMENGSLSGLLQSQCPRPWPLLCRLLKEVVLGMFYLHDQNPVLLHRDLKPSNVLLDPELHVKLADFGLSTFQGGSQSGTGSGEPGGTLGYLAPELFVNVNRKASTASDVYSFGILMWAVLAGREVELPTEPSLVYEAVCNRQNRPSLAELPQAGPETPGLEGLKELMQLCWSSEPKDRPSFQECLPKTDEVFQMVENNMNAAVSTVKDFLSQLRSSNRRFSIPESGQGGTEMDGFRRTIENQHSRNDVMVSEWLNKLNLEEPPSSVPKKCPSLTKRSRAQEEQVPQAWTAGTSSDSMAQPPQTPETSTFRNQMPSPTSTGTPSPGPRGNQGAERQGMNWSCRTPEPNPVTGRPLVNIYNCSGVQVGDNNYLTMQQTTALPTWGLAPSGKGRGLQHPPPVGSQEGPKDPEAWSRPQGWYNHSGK

Take `O=C(C1CC1)N1CCC[C@H](Nc2nccc(-n3c(-c4ccc(Cl)c(Cl)c4)nc4c3CN(C(=O)N3CCC(O)CC3)C4)n2)C1` [Compound 16a, (S)-(1-(2-((1-(cyclopropanecarbonyl)piperidin-3-yl)amino)pyrimidin-4-yl)-2-(3,4-dichlorophenyl)-4,6-dihydropyrrolo[3,4-d]imidazol-5(1H)-yl)(4-hydroxypiperidin-1-yl)methanone]: the IC50 – broadly, the midpoint of a concentration-inhibition curve – against JNK3 [1] was below 30 nM. In the case of `NC(=O)N1Cc2nc(-c3ccc(Cl)c(Cl)c3)n(-c3ccnc(N[C@@H]4CCN(C(=O)C5CC5)C4)n3)c2C1` [Compound 16c, (R)-1-(2-((1-(cyclopropanecarbonyl)pyrrolidin-3-yl)amino)pyrimidin-4-yl)-2-(3,4-dichlorophenyl)-4,6-dihydropyrrolo[3,4-d]imidazole-5(1H)-carboxamide], the inhibition at 10 µM turned out to be 100% on JNK2, 50% on RIPK3, 100% at JNK3 [2] and 70% at GSK-β. Turning to `NC(=O)N1Cc2nc(-c3ccc(Cl)c(Cl)c3)n(-c3ccnc(N[C@H]4CCCN(C(=O)C5CC5)C4)n3)c2C1` [Compound 16b, (S)-1-(2-((1-(cyclopropanecarbonyl)piperidin-3-yl)amino)pyrimidin-4-yl)-2-(3,4-dichlorophenyl)-4,6-dihydropyrrolo[3,4-d]imidazole-5(1H)-carboxamide], the IC50 at JNK3 [1] (JNK3 enzyme activity, Table 1, read-out: IC50) is below 30 nM. Turning to `NC(=O)N1Cc2nc(-c3ccc4c(c3)OCO4)n(-c3ccnc(N[C@H]4CCCN(C(=O)C5CCC5)C4)n3)c2C1` [Compound 16m, (S)-2-(benzo[d][1,3]dioxol-5-yl)-1-(2-((1-(cyclobutanecarbonyl)piperidin-3-yl)amino)pyrimidin-4-yl)-4,6-dihydropyrrolo[3,4-d]imidazole-5(1H)-carboxamide], the half-inhibitory concentration (IC50) on JNK3 [1] (JNK3 enzyme activity, Table 2, read-out: IC50) fell in the range of 100 to 10000 nM.
